According to patent US11117900B2 (Vertex Pharmaceuticals Incorporated, priority 2012, dated 2021):
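Also: compound concentration needed to lower the IC50 of Cisplatin alone by a set fold.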

Each compound was assayed on HCT116 colorectal cancer cells (assay: Cisplatin sensitization assay (96 h MTS cell viability)). Conditions: Cisplatin sensitization value.
Assay type: cell-based
Method: Compounds can be screened for their ability to sensitize HCT116 colorectal cancer cells to Cisplatin using a 96 h cell viability (MTS) assay. […] Compounds and Cisplatin are then both added simultaneously to the cell media in 2-fold serial dilutions from a top final concentration of 10 μM as a full matrix of concentrations in a final cell volume of 200 μl, and the cells are then incubated at 37° C. in 5% CO2. After 96 h, 40 μl of MTS reagent (Promega G358a) is added to each well and the cells are incubated for 1 h at 37° C. in 5% CO2.
Compounds with a Cisplatin sensitization value of <0.02 μM are marked with “+++.” Compounds with a Cisplatin sensitization value >0.02 μM but <0.2 μM are marked with “++.” Compounds with a Cisplatin sensitization value >0.2 μM but <5 μM are marked with “+.”
For `Nc1nn2cc(Cl)cnc2c1C(=O)Nc1cnccc1N1CCN(C2CC2)CC1` [I-N-64, 2-amino-6-chloro-N-(4-(4-cyclopropylpiperazin-1-yl)pyridin-3-yl)pyrazolo[1,5-a]pyrimidine-3-carboxamide], the “Cisplatin Sensitization Assay” value was “+++ (Compounds with a Cisplatin sensitization value of <0.02 μM are marked with “+++.”)”. In the case of `Nc1nn2cc(F)cnc2c1C(=O)Nc1cncc(F)c1N1CCC(C(=O)N2CCC(N3CCC3)CC2)CC1` [I-G-68, 2-amino-N-(4-(4-(4-(azetidin-1-yl)piperidine-1-carbonyl)piperidin-1-yl)-5-fluoropyridin-3-yl)-6-fluoropyrazolo[1,5-a]pyrimidine-3-carboxamide], the “Cisplatin Sensitization Assay” value is reported as “+++ (Compounds with a Cisplatin sensitization value of <0.02 μM are marked with “+++.”)”. `Cc1nc(O[C@@H]2CCN(C)C2)ccc1-c1ccncc1NC(=O)c1c(N)nn2cc(F)cnc12` [I-C-41, (R)-2-amino-6-fluoro-N-(2-methyl-6-((1-methylpyrrolidin-3-yl)oxy)-[3,4′-bipyridin]-3′-yl)pyrazolo[1,5-a]pyrimidine-3-carboxamide] was tested, and the “Cisplatin Sensitization Assay” value was “+++ (Compounds with a Cisplatin sensitization value of <0.02 μM are marked with “+++.”)”. In the case of `Nc1nn2cc(F)cnc2c1C(=O)Nc1cncc(F)c1N1CCC(C(=O)NC2COC2)CC1` [I-G-37, 2-amino-6-fluoro-N-(5-fluoro-4-(4-(oxetan-3-ylcarbamoyl)piperidin-1-yl)pyridin-3-yl)pyrazolo[1,5-a]pyrimidine-3-carboxamide], the “Cisplatin Sensitization Assay” value is reported as “++ (Compounds with a Cisplatin sensitization value >0.02 μM but <0.2 μM are marked with “++.”)”. With `Nc1nn2cc(Cl)cnc2c1C(=O)Nc1cnccc1OC1CCNCC1` [I-O-80, 2-amino-6-chloro-N-(4-(piperidin-4-yloxy)pyridin-3-yl)pyrazolo[1,5-a]pyrimidine-3-carboxamide] the “Cisplatin Sensitization Assay” value was “+++ (Compounds with a Cisplatin sensitization value of <0.02 μM are marked with “+++.”)”. `Nc1nn2cc(Cl)cnc2c1C(=O)Nc1cnccc1OC1CCCNC1` (centres unmarked) [I-O-75, 2-amino-6-chloro-N-(4-(piperidin-3-yloxy)pyridin-3-yl)pyrazolo[1,5-a]pyrimidine-3-carboxamide] was tested, and the “Cisplatin Sensitization Assay” value was “++ (Compounds with a Cisplatin sensitization value >0.02 μM but <0.2 μM are marked with “++.”)”. For `Nc1nn2cc(F)cnc2c1C(=O)Nc1cncc(F)c1N1CCN(C(=O)C2CN3CCC2CC3)CC1` (centres unmarked) [I-N-130, 2-amino-6-fluoro-N-(5-fluoro-4-(4-(quinuclidine-3-carbonyl)piperazin-1-yl)pyridin-3-yl)pyrazolo[1,5-a]pyrimidine-3-carboxamide], the “Cisplatin Sensitization Assay” value was “++ (Compounds with a Cisplatin sensitization value >0.02 μM but <0.2 μM are marked with “++.”)”. `CN1C[C@@H]2CCN(c3ccncc3NC(=O)c3c(N)nn4cc(F)cnc34)C[C@@H]2C1=O` [I-N-224, 2-amino-6-fluoro-N-(4-((3aR,7aR)-2-methyl-3-oxohexahydro-1H-pyrrolo[3,4-c]pyridin-5(6H)-yl)pyridin-3-yl)pyrazolo[1,5-a]pyrimidine-3-carboxamide] was tested, and the “Cisplatin Sensitization Assay” value was “+ (Compounds with a Cisplatin sensitization value >0.2 μM but <5 μM are marked with “+.”)”. With `Cc1ccncc1-c1ccncc1NC(=O)c1c(N)nn2cc(F)cnc12` [I-C-30, 2-amino-6-fluoro-N-(4-methyl-[3,4′-bipyridin]-3′-yl)pyrazolo[1,5-a]pyrimidine-3-carboxamide] the “Cisplatin Sensitization Assay” value was “+++ (Compounds with a Cisplatin sensitization value of <0.02 μM are marked with “+++.”)”. In the case of `Nc1nn2cc(F)cnc2c1C(=O)Nc1cnccc1C1CC1` [I-C-42, 2-amino-N-(4-cyclopropylpyridin-3-yl)-6-fluoropyrazolo[1,5-a]pyrimidine-3-carboxamide], the “Cisplatin Sensitization Assay” value is reported as “++ (Compounds with a Cisplatin sensitization value >0.02 μM but <0.2 μM are marked with “++.”)”. `Nc1nn2cc(F)cnc2c1C(=O)Nc1cnccc1N1CCOCC1` [I-N-141, 2-amino-6-fluoro-N-(4-morpholinopyridin-3-yl)pyrazolo[1,5-a]pyrimidine-3-carboxamide] was tested, and the “Cisplatin Sensitization Assay” value was “+++ (Compounds with a Cisplatin sensitization value of <0.02 μM are marked with “+++.”)”.
